Experimental data from patent US11001615B2, “Mutated tau protein fragment and use thereof” (ADEL INC., priority 2016, dated 2021).
Square brackets hold non-standard residues; d marks the D form. Ends that are not written are not given here. pT = C[C@@H](OP(=O)(O)O)[C@H](N)C(=O)O

Experiments:
Tau-P301L dementia mice [1] = assay: Water maze test; assay type: in vivo; details: 5th day, platform removed; ranking after K280-ac
Protocol: (§1) JNPL3 mice expressing Tau-P301L mutant gene were purchased from Taconic, and back-crossed with C57bl/6 mice for five generations in the experimental animal room of the Asan Institute for Life Sciences. Then, the mice were raised under a specific pathogen free (SPE) condition. For active immunization, the mice were administered, for six months starting from three months after birth at intervals of two weeks, two weeks, four weeks, four weeks, five weeks, four weeks, and one week in this order, the four modified tau protein fragments prepared in Preparation Example 1 together with keyhole limpet hemocyanin (KLH) as a carrier and an aluminum adjuvant. At this time, administration was carried out through intraperitoneal injection (IP injection). The dementia mice which were actively immunized by administration of the K280-ac fragment were designated as Tau-P301L-K280-ac.
An underwater maze test was performed to evaluate a learning and memory ability of the mice. […] Specifically, the underwater maze test took a total of 5 days. The mice were trained for 4 days in a state where a platform and a visual cue for the platform location are placed.
The learning was conducted by filling a swimming pool (1.4 m in diameter, 45 cm in depth) having a platform with water (29±0.5° C.) to a depth of about 26.5 cm, and then 1.5 L of whole milk powder was added to make water cloudy so that the mice can remember the platform with the cue only. Then, the mice were adapted to freely swim for 60 seconds and allowed to rest on the platform for 1 minute. The experiment was performed over a total of 12 times with 4 sets at three different starting positions. At the end of each test, 30 seconds of break time was given. At the end of one set, 30 to 45 minutes of break time was given.
After 4 days of learning, the test was performed on the 5th day. In the experiment for evaluation, the platform was not placed, and the number of staying in the area where the platform has been placed was measured in order to identify whether the mice visit well the platform location using the cue only. The test time was set for the mice to arrive at the location where the platform had been placed within one minute. If the mice fail to arrive at the platform location within one minute, the mice were removed out of the swimming pool.

Tau-P301L dementia mice [2] = assay: ELISA using plasma: antibody production against modified tau protein fragments; assay type: in vivo; details: ELISA using plasma after final administration; fragment with KLH and aluminum adjuvant, IP
Protocol: as §1
In order to identify whether antibodies against the four modified tau protein fragments prepared in Preparation Example 1 were produced, the respective modified tau protein fragments or the full-length tau protein was finally administered, and then ELISA was performed using plasma.

Substance | number of arrivals, ranking among fragments (Tau-P301L dementia mice [1]) | antibodies against the fragment produced (Tau-P301L dementia mice [2])
Glu391: protein fragment having the 381st to 391st amino acid sequence section of the tau protein in which the C-terminus of the 391st amino acid is truncated (NAKAKTDHGAE) | next highest increased number of arrivals | well produced
VQIVYK-ac: protein fragment having the 303rd to 316th amino acid sequence section of the tau protein in which the 306th to 311th amino acids are acetylated (GGSVQIVYKPVDLS; also: residues 306-311 (VQIVYK) acetylated; listed as Homo sapiens) | next highest increased number of arrivals | not well produced
pT231: protein fragment having the 226th to 236th amino acid sequence section of the tau protein in which the 231st amino acid is phosphorylated (VAVVR[pT]PPKSP) | lowest number of times to arrive at the platform | well produced
